The values below come from patent US10981902B2 (Merck Sharp & Dohme Corp., priority 2017, dated 2021).

pEC50: −log10 of the molar value.

This assay concerns the target T1, human M4 muscarinic acetylcholine receptor (Homo sapiens, UniProt P08173).
T1 construct: expressed in transfected cells; host or cells: CHO-K1
T1 sequence (P08173 1-479): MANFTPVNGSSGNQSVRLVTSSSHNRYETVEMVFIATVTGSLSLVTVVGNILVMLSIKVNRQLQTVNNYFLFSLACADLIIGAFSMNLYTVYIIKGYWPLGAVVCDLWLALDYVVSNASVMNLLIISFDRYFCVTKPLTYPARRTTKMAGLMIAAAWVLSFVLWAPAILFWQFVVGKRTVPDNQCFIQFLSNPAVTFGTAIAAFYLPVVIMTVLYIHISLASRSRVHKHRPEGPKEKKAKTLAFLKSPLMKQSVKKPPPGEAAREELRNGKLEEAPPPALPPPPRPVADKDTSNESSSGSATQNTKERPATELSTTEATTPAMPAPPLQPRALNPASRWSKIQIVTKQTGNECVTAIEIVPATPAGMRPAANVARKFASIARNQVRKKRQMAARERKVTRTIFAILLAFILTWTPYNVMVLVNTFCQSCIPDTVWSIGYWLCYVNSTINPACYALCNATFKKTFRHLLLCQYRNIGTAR
The assay is described as follows: human FLIPR-based M4 PAM assay (calcium mobilization, CHO-K1 cells with human M4 receptor and Gαqi5). In kind it is cell-based. The settings on record: inflection point (IP) of dose response curve, acetylcholine added at 20% of maximum response, read-out: M4 FLIPPR Hu IP. How it is done:
In a typical experiment the M4 muscarinic acetylcholine receptor modulating activity of the compounds of the present invention was determined in accordance with the following experimental method. CHO-K1 cells stably transfected with human M4 receptor and chimeric G-protein Gαqi5 (Coward P, et al., Analytical Biochemistry, 270:242-248 (1999)) are thawed from liquid N2 storage, resuspended in growth medium, plated in black, clear bottom 384 well plates, and incubated 16-20 hours at 37° C., 5% CO2. On the day of assay, growth medium is removed, the cells are washed 2 times with wash buffer, and cells are incubated in dye loading buffer at 37° C., 5% CO2 for ˜1 hour. Following dye loading the cell plates are placed in a FLIPR Tetra instrument and while monitoring dye fluorescence (excitation […]), 10 uL of test substance at increasing concentrations is added, and fluorescence values are recorded for 4 min. Next, 10 uL of acetylcholine is added (final concentration calculated so as to achieve 20% of the maximum acetycholine response), and the fluorescence reading is continued for 3.5 min. In some cases, a third addition of acetylcholine (final concentration calculated to achieve 70% of the maximal acetylcholine response) is performed. The resulting dose response curves are fit to a 4 parameter logistic equation and the final result is determined as the inflection point (IP) of the curve
CHO-K1 cells stably transfected with human M4 receptor and chimeric G-protein Gαqi5 are thawed from liquid N2 storage, resuspended in growth medium, plated in black, clear bottom 384 well plates, and incubated 16-20 hours at 37° C., 5% CO2.
On the day of assay, growth medium is removed, the cells are washed 2 times with wash buffer, and cells are incuabted in dye loading buffer at 37° C., 5% CO2 for ˜1 h. Following dye loading the cell plates are placed in a FLIPR Tetra instrument and while monitoring dye fluorescence ([…]), 10 uL of test substance at increasing concentrations is added, and fluorescence values are recorded for 4 min. Next, 10 uL of acetylcholine is added (final concentration calculated so as to achieve 20% of the maximum acetycholine response), and the fluorescence reading is continued for 3.5 min. In some cases, a third addition of acetylcholine (final concentration calculated to achieve 70% of the maximal acetylcholine response) is performed.
On to `CC(C)(C)Cc1ncc(-c2ccc(C#N)nc2-c2cnc3c(c2)C(=O)N(CC2CC2)C3)o1` [Example 39, 6-(6-(cyclopropyl-methyl)-5-oxo-6,7-dihydro-5H-pyrrolo[3,4-b]-pyridin-3-yl)-5-(2-neopentyloxazol-5-yl)picolinonitrile], for which the pEC50 is 7.03.

Consider `CN1Cc2ccc(-c3nc(C#N)ccc3-c3cnc(CC4(F)CCCC4)o3)cc2C1=O` [Example 82, 5-(2-((1-fluorocyclopentyl)methyl)oxazol-5-yl)-6-(2-methyl-3-oxoisoindolin-5-yl)picolinonitrile], for which the pEC50 is 7.38.

Take `CC(C)(C)Cc1ncc(-c2ccc(C#N)nc2-c2ccn3ccnc3c2)o1` [Example 16, 6-(imidazo[1,2-a]-pyridin-7-yl)-5-(2-neopentyloxazol-5-yl)picolinonitrile]: the pEC50 was 7.21.

In the case of `Cc1cn2ccc(-c3nc(C#N)ccc3-c3cnc(CC(C)C(F)(F)F)o3)cc2n1` (stereo not drawn) [Example 95, 6-(2-methylimidazo[1,2-a]pyridin-7-yl)-5-(2-(3,3,3-trifluoro-2-methylpropyl)oxazol-5-yl)picolinonitrile], the pEC50 is 6.71.

Regarding `CC(C)(C)Cc1ncc(-c2ccc(C(F)F)nc2-c2ccn3ccnc3c2)o1` [Example 19, 5-(6-(difluoro-methyl)-2-(imidazo-[1,2-a]pyridin-7-yl)pyridin-3-yl)-2-neopentyloxazole], the pEC50 is 7.14.

Consider `CC(C)(C)Cc1ncc(-c2ccc(C(F)F)nc2-c2ccc3cccnc3c2)o1` [Example 13, 5-(6-(difluoro-methyl)-2-(quinolin-7-yl)pyridin-3-yl)-2-neopentyloxazole], for which the pEC50 is 6.89.

For `CN1Cc2ccc(-c3nc(F)ccc3-c3cnc(CC4(C)CCCC4)o3)cc2C1=O` [Example 8, 6-(6-fluoro-3-(2-((1-methylcyclo-pentyl)methyl)oxazol-5-yl)pyridin-2-yl)-2-methylisoindolin-1-one], the pEC50 was 7.36.

In the case of `Cn1cnc2cc(-c3nc(C(F)F)ccc3-c3cnc(CC4CCCC4)o3)cnc21` [Example 49, 2-(cyclopentylmethyl)-5-(6-(difluoromethyl)-2-(3-methyl-3H-imidazo[4,5-b]pyridin-6-yl)pyridin-3-yl) oxazole], the pEC50 is 7.35.

For the compound `Cc1cn2ccc(-c3nc(C#N)ccc3-c3cnc(CC(F)C4CC4)o3)cc2n1` (stereo not drawn) [Example 88, 5-(2-(2-cyclopropyl-2-fluoroethyl)oxazol-5-yl)-6-(2-methylimidazo [1,2-a]pyridin-7-yl)picolinonitrile], the pEC50 is 7.20.

For the compound `CC(Cc1ncc(-c2ccc(C#N)nc2-c2ccc3cccnc3c2)o1)C(C)(C)F` (stereo not drawn) [Example 83, 5-(2-(3-fluoro-2,3-dimethylbutyl)oxazol-5-yl)-6-(quinolin-7-yl) picolinonitrile], the pEC50 was 7.17.

Consider `CN1Cc2ncc(-c3nc4c(cc3-c3cnc(CC5CCCC5)o3)CCC4)cc2C1=O` [Example 53, 3-(3-(2-(cyclopentylmethyl)oxazol-5-yl)-6,7-dihydro-5H-cyclopenta[b]pyridin-2-yl)-6-methyl-6,7-dihydro-5H-pyrrolo[3,4-b] pyridin-5-one], for which the pEC50 is 6.82.

`N#Cc1ccc(-c2cnc(CC3CCCC3)o2)c(-c2cnc3c(c2)C(=O)N(CC2CC2)C3)n1` [Example 51, 5-(2-(cyclopentylmethyl)oxazol-5-yl)-6-(6-(cyclopropylmethyl)-5-oxo-6,7-dihydro-5H-pyrrolo[3,4-b]pyridin-3-yl) picolinonitrile]: the pEC50 is 7.38.

As for `N#Cc1ccc(-c2cnc(CCC(F)(F)F)o2)c(-c2ccn3ccnc3c2)n1` [Example 67, 6-(imidazo[1,2-a]pyridin-7-yl)-5-(2-(3,3,3-trifluoropropyl)oxazol-5-yl)picolinonitrile], the pEC50 is 6.87.

In the case of `N#Cc1ccc(-c2cnc(CC3CC3)o2)c(-c2ccc3cccnc3c2)n1` [Example 62, 5-(2-(cyclopropylmethyl)oxazol-5-yl)-6-(quinolin-7-yl)picolinonitrile], the pEC50 was 6.98.

In the case of `Cc1nc2cc(-c3nc(C#N)ccc3-c3cnc(CC4CC(F)(F)C4)o3)ccn2n1` [Example 99, 5-(2-((3,3-difluorocyclobutyl)methyl)oxazol-5-yl)-6-(2-methyl-[1,2,4]triazolo[1,5-a]pyridin-7-yl) picolinonitrile], the pEC50 was 7.05.

As for `CN1Cc2ccc(-c3nc(C(F)F)ccc3-c3cnc(CC(C)(C)C(F)(F)F)o3)cc2C1=O` [Example 26, 6-(6-(difluoromethyl)-3-(2-(3,3,3-trifluoro-2,2-dimethylpropyl)-oxazol-5-yl)pyridin-2-yl)-2-methylisoindolin-1-one], the pEC50 is 7.20.

Take `N#Cc1ccc(-c2cnc(CC(O)C3CC3)o2)c(-c2ccc3cccnc3c2)n1` (stereo not drawn) [Example 68, 5-(2-(2-cyclopropyl-2-hydroxyethyl)oxazol-5-yl)-6-(quinolin-7-yl)picolinonitrile]: the pEC50 is 6.64.

For the compound `CC1(Cc2ncc(-c3ccc(C#N)nc3N3CCn4ccnc4C3)o2)CCCC1` [Example 9, 6-(5,6-dihydro-imidazo[1,2-a]-pyrazin-7(8H)-yl)-5-(2-((1-methyl-cyclopentyl)-methyl)oxazol-5-yl)picolinonitrile], the pEC50 is 6.97.

As for `Cc1nc2cc(-c3nc(C#N)ccc3-c3cnc(CCC(C)(F)F)o3)ccn2n1` [Example 112, 5-(2-(3,3-difluorobutyl)oxazol-5-yl)-6-(2-methyl-[1,2,4]triazolo [1,5-a]pyridin-7-yl)picolinonitrile], the pEC50 is 6.74.

Turning to `N#Cc1ccc(-c2cnc(CC(F)C3CC3)o2)c(-c2ccc3cccnc3c2)n1` (stereo not drawn) [Example 69, 5-(2-(2-cyclopropyl-2-fluoroethyl)oxazol-5-yl)-6-(quinolin-7-yl)picolinonitrile], the pEC50 was 7.39.

As for `Cc1cn2ccc(-c3ncccc3-c3cnc(CC4(F)CCCC4)o3)cc2n1` [Example 91, 2-((1-fluorocyclopentyl)methyl)-5-(2-(2-methylimidazo [1,2-a]pyridin-7-yl)pyridin-3-yl)oxazole], the pEC50 is 7.12.

As for `N#Cc1ccc(-c2cnc(CCC(F)(F)C(F)(F)F)o2)c(-c2ccn3ccnc3c2)n1` [Example 109, 6-(imidazo[1,2-a]pyridin-7-yl)-5-(2-(3,3,4,4,4-pentafluorobutyl)oxazol-5-yl) picolinonitrile], the pEC50 is 6.98.

Regarding `Cc1ccc(-c2cnc(CC3CCCC3)o2)c(-c2ccc3cccnc3c2)n1` [Example 1, 2-(cyclopentylmethyl)-5-(6-methyl-2-(quinolin-7-yl)pyridin-3-yl)oxazole], the pEC50 was 8.15.

On to `CN1Cc2ccc(-c3nc4c(cc3-c3cnc(CC5(C)CCCC5)o3)CCC4=O)cc2C1=O` [Example 41, 2-(2-methyl-3-oxoisoindolin-5-yl)-3-(2-((1-methyl-cyclopentyl)-methyl)oxazol-5-yl)-5,6-dihydro-7H-cyclopenta[b]-pyridin-7-one], for which the pEC50 is 7.35.

In the case of `N#Cc1ccc(-c2cnc(CC(F)C3CC3)o2)c(-c2ccn3ccnc3c2)n1` (stereo not drawn) [Example 85, 5-(2-(2-cyclopropyl-2-fluoroethyl)oxazol-5-yl)-6-(imidazo[1,2-a]pyridin-7-yl) picolinonitrile], the pEC50 is 7.31.

With `CN1C(=O)c2cc(-c3nc4c(cc3-c3cnc(CC5(C)CCCC5)o3)CCC4)cnc2C1=O` [Example 10, 6-methyl-3-(3-(2-((1-methylcyclo-pentyl)methyl)oxazol-5-yl)-6,7-dihydro-5H-cyclopenta[b]-pyridin-2-yl)-5H-pyrrolo[3,4-b]-pyridine-5,7(6H)-dione], the pEC50 was 6.68.

On to `N#Cc1ccc(-c2cnc(CC3CCCC3)o2)c(N2CCn3ccnc3C2)n1` [Example 58, 5-(2-(cyclopentylmethyl)oxazol-5-yl)-6-(5,6-dihydroimidazo[1,2-a]pyrazin-7(8H)-yl) picolinonitrile], for which the pEC50 was 7.77.
